Test results as given in patent US20240092835A1, “NOVEL PEPTIDES CAPABLE OF ALTERING NK CELL ACTIVITY” (Massachusetts Institute of Technology, priority 2022, published 2024).

Tests used:
NKG2A+/NKG2C− NK cells = experiment: NK cell activation markers in NKG2A+/NKG2C- NK cells incubated with peptide and K562 expressing HLA-E (inhibition); assay type: cell-based, human; conditions: for percentage of CCL3+ NK cells / percentage of CD107a+ NK cells / percentage of IFNG+ NK cells / percentage of TNF+ NK cells: NKG2A+/NKG2C- NK cells, K562/HLA-E
Procedure, shortened: (§1)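 Human myelogenous leukemia K562 cells displaying HLA-E carry the test peptides (human or HCMV origin) and are presented to NK cells; surface activation markers are scored by percent positive cells.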

NKG2A−/NKG2C+ NK cells [1] = experiment: NK cell activation markers in NKG2A-/NKG2C+ NK cells incubated with peptide and K562 expressing HLA-E (activation); assay type: cell-based, human; conditions: for percentage of CCL3+ NK cells / percentage of CD107+ NK cells / percentage of IFNG+ NK cells / percentage of TNF+ NK cells: NKG2A-/NKG2C+ NK cells, K562/HLA-E
Procedure, shortened: as §1

NKG2A−/NKG2C− NK cells = experiment: NK cell activation markers in control NKG2A-/NKG2C- NK cells incubated with peptide and K562 expressing HLA-E; assay type: cell-based, human
Procedure, shortened: as §1

NKG2A−/NKG2C+ NK cells [2] = experiment: NKG2A-/NKG2C+ NK cell activation with peptide and RMA-S cells expressing HLA-E; assay type: cell-based; conditions: RMA-S cells expressing HLA-E
Protocol: An antigen processing-defective lymphoma cell line (RMA-S), with a low-level expression of HLA-E, were incubated with the novel peptides to determine the inhibitory strength on NKG2A−/NKG2C+NK cells relative to positive control sequences with differential effects ([…] (SEQ ID NO: 19)/VMAPRTLFL (SEQ ID NO: 18)). The effects of the peptides on NK cell inhibition were determined by measuring four markers of NK cell activation (CD107a, IFNG, TNF, CCL3) in NKG2A−/NKG2C+NK cells (FIGS. 2A-2D). Activation was indicated by an increase in percent cells positive for cell surface markers.

HLA-E = biological target: T1, HLA-E (Homo sapiens, UniProt P13747); experiment: HLA-E surface stabilization assay with RMA-S/HLA-E cells; assay type: cell-based; conditions: 30 μM peptide, 16 hours; for HLA-E surface expression stability (GeoMFI): anti-HLA-E antibody
T1 construct: expressed in transfected cells; host or cells: RMA-S/HLA-E cells (antigen processing-defective lymphoma cell line)
T1 sequence (P13747 22-358): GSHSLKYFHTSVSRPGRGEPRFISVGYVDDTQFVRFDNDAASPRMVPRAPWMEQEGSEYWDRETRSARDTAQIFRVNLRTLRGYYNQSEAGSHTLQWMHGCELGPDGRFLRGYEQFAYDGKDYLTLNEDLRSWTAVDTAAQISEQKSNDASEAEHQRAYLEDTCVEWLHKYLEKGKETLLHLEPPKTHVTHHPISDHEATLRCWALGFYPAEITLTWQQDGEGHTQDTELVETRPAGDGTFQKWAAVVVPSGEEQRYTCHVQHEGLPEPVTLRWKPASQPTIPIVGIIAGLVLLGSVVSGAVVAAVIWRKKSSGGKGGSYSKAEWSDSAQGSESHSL
T1 sequence (P61769 21-119 partner): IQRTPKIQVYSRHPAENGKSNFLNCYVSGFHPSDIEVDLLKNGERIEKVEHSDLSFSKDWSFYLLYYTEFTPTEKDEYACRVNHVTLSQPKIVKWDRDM
Protocol: HLA-E surface expression was assessed by measuring geometric mean fluorescence intensity (GeoMFI) in RMA-S cells following immunofluorescence staining with an anti-HLA-E antibody (Table 14). Increased GeoMFI was indicative of increased HLA-E surface expression stability following novel peptide exposures (FIG. 3).

[3] = K562 expressing HLA-E, CD107a, IFNG, TNF, CCL3

## NMPARTVLF [human14, peptide MTREX 490-498 derived from the human proteome]
NKG2A+/NKG2C− NK cells; [3]
  effect on NKG2A+/NKG2C− NK cell inhibition (in words): strong inhibitory
NKG2A+/NKG2C− NK cells; Trial 1
  percentage of CCL3+ NK cells: 3.55%
  percentage of CD107a+ NK cells: 1.54%
  percentage of IFNG+ NK cells: 0.3%
  percentage of TNF+ NK cells: 0.12%
NKG2A+/NKG2C− NK cells; Trial 2
  percentage of CCL3+ NK cells: 6.94%
  percentage of CD107a+ NK cells: 2.38%
  percentage of IFNG+ NK cells: 0.79%
  percentage of TNF+ NK cells: 0.31%
NKG2A+/NKG2C− NK cells; Trial 3
  percentage of CCL3+ NK cells: 6.08%
  percentage of CD107a+ NK cells: 3.66%
  percentage of IFNG+ NK cells: 2.62%
  percentage of TNF+ NK cells: 1.09%
NKG2A+/NKG2C− NK cells; Trial 4
  percentage of CCL3+ NK cells: 3.51%
  percentage of CD107a+ NK cells: 2.52%
  percentage of IFNG+ NK cells: 0.83%
  percentage of TNF+ NK cells: 0.55%
NKG2A+/NKG2C− NK cells; Trial 5
  percentage of CCL3+ NK cells: 17%
  percentage of CD107a+ NK cells: 4.05%
  percentage of IFNG+ NK cells: 2.12%
  percentage of TNF+ NK cells: 0.89%
NKG2A+/NKG2C− NK cells; Trial 6
  percentage of CCL3+ NK cells: 2.66%
  percentage of CD107a+ NK cells: 1.16%
  percentage of IFNG+ NK cells: 0.43%
  percentage of TNF+ NK cells: 0.14%
NKG2A−/NKG2C+ NK cells [1]; [3]
  effect on NKG2A−/NKG2C+ NK cell activation (in words): strong inhibitory and activating effects
NKG2A−/NKG2C+ NK cells [1]; Trial 1
  percentage of CCL3+ NK cells: 70.6%
  percentage of CD107+ NK cells: 61.3%
  percentage of IFNG+ NK cells: 45.6%
  percentage of TNF+ NK cells: 31.9%
NKG2A−/NKG2C+ NK cells [1]; Trial 2
  percentage of CCL3+ NK cells: 87.5%
  percentage of CD107+ NK cells: 83.1%
  percentage of IFNG+ NK cells: 72.7%
  percentage of TNF+ NK cells: 65.1%
NKG2A−/NKG2C+ NK cells [1]; Trial 3
  percentage of CCL3+ NK cells: 82.5%
  percentage of CD107+ NK cells: 85%
  percentage of IFNG+ NK cells: 74.2%
  percentage of TNF+ NK cells: 65%
NKG2A−/NKG2C+ NK cells [1]; Trial 4
  percentage of CCL3+ NK cells: 61.1%
  percentage of CD107+ NK cells: 59.1%
  percentage of IFNG+ NK cells: 47.5%
  percentage of TNF+ NK cells: 40%
NKG2A−/NKG2C+ NK cells [1]; Trial 5
  percentage of CCL3+ NK cells: 71.8%
  percentage of CD107+ NK cells: 70.5%
  percentage of IFNG+ NK cells: 61.9%
  percentage of TNF+ NK cells: 57.9%
NKG2A−/NKG2C+ NK cells [1]; Trial 6
  percentage of CCL3+ NK cells: 52.1%
  percentage of CD107+ NK cells: 44.3%
  percentage of IFNG+ NK cells: 30.5%
  percentage of TNF+ NK cells: 21.8%
NKG2A−/NKG2C− NK cells; Trial 1
  percentage CCL3+ NK cells: 29.3%
  percentage CD107+ NK cells: 20.9%
  percentage TNF+ NK cells: 2.61%
  percentage of IFNG+ NK cells: 12.1%
NKG2A−/NKG2C− NK cells; Trial 2
  percentage CCL3+ NK cells: 54.7%
  percentage CD107+ NK cells: 31.4%
  percentage TNF+ NK cells: 9.25%
  percentage of IFNG+ NK cells: 27.7%
NKG2A−/NKG2C− NK cells; Trial 3
  percentage CCL3+ NK cells: 44%
  percentage CD107+ NK cells: 43.7%
  percentage TNF+ NK cells: 17.1%
  percentage of IFNG+ NK cells: 36.5%
NKG2A−/NKG2C− NK cells; Trial 4
  percentage CCL3+ NK cells: 29.2%
  percentage CD107+ NK cells: 25.6%
  percentage TNF+ NK cells: 8.96%
  percentage of IFNG+ NK cells: 17.5%
NKG2A−/NKG2C− NK cells; Trial 5
  percentage CCL3+ NK cells: 26.9%
  percentage CD107+ NK cells: 21.8%
  percentage TNF+ NK cells: 7.19%
  percentage of IFNG+ NK cells: 16.7%
NKG2A−/NKG2C− NK cells; Trial 6
  percentage CCL3+ NK cells: 20.9%
  percentage CD107+ NK cells: 16.7%
  percentage TNF+ NK cells: 2.97%
  percentage of IFNG+ NK cells: 7.36%
NKG2A−/NKG2C+ NK cells [2]
  NKG2A−/NKG2C+ NK cell activation relative to positive control peptides (in words): decreased NK cell activation relative to the positive control peptides
HLA-E; Trial 1
  HLA-E surface expression stability (GeoMFI): 1304 GeoMFI
HLA-E; Trial 2
  HLA-E surface expression stability (GeoMFI): 1364 GeoMFI
HLA-E; Trial 3
  HLA-E surface expression stability (GeoMFI): 1005 GeoMFI
HLA-E; Trial 4
  HLA-E surface expression stability (GeoMFI): 1738 GeoMFI
HLA-E; approximate value
  HLA-E surface expression stabilization strength, approximate GeoMFI: approximately 1×10^3 GeoMFI
